According to patent US9901578B2, “Combination of 10-propargyl-10-deazaaminopterin and erlotinib for the treatment of non-small cell lung cancer” (Allos Therapeutics, Inc., priority 2007, dated 2018):
Values joined by “and” are separate entries in the source; they are usually repeats but may differ in a detail not shown here. Equal entries are not always repeated. “Also recorded” adds a separate entry of the source. Where two headings read alike, the source gives them in different places.

Legend:
[1] = system: FPGS activity (polyglutamylation); experiment: Polyglutamylation of radiolabeled drug in H460 cells; format: cell-based, human; conditions: lysates of treated H460 cells; PDX, MTX 5 μM, Alimta 20 μM
H460 cells = experiment: Short-term uptake of radiolabeled drug in H460 cells; format: cell-based, human; conditions: for Total uptake of radiolabeled drug: measured at 15 and 60 minutes, PDX, MTX 5 μM, Alimta 20 μM
A549 cells = experiment: In vitro growth inhibition in A549 cells; format: cell-based, human
Experimental: The human non small lung carcinoma cell line A549 was purchased from the American Type Culture Collection (ATCC, Manassas, Va.). The cell line was cultured in Ham's F 12K medium with 2 mM L-glutamine 1.5 g/L sodium bicarbonate, supplemented with 10% fetal bovine serum and was maintained at 37° C. in a humidified atmosphere at 5% CO2 and 95% air.
An in vitro study in A549 cells was performed to compare the growth inhibition activity of PDX to that of cisplatin, paclitaxel, and docetaxel.

H460 xenografts = experiment: H460 non-small cell lung carcinoma human tumor xenograft; format: in vivo; conditions: PDX 1 mg/kg and 2 mg/kg
Excerpt: (§1) Endpoints included mean tumor growth inhibition or regression. We further evaluated activity and/or expression of folate-dependent enzymes: DHFR, thymidylate synthase (TS), and folylpolyglutamate synthase (FPGS) using kinetic assays and immunostaining in tumors harvested at the end of the study from animals treated with the antifolates or vehicle controls. In vitro studies included evaluation of reduced folate carrier (RFC) expression by quantitative RT-PCR in MV522, and H460, xenograft models. […] Inhibition of DHFR by the three antifolates was quantified in a cell-free assay against human recombinant DHFR.

MV522 xenografts = experiment: MV522 non-small cell lung carcinoma human tumor xenograft; format: in vivo; conditions: PDX 1 mg/kg and 2 mg/kg
Excerpt: as §1

[2] = Experimental: To evaluate the doses to be tested in the xenograft mouse model, non-tumor bearing female athymice nu/nu mice were treated with 2 mg/kg of PDX alone and in combination with 50 mg/kg of Tarceva® as described in Table 1. Animals were monitored daily for routine health observation. Body weight of the animals was recorded daily during the treatment phase and thereafter twice weekly for 14 days after the last treatment).
A549 xenograft = A549 xenograft mouse model, tumor volume; format: in vivo, athymic nu/nu mice; conditions: for Effect on tumor growth: 35 days
Experimental: Xenotransplant of A549 was established by subcutaneous inoculation of 5×10^6 cells on the right flank using a 21G needle in 6-8 week female athymic nude mice. A total of 75 animals were injected with A549 xenotransplant. Tumor volume was monitored twice weekly, once the established tumor reached 75-150 mm^3 (individual tumor range between 70 to 200 mm^3) the mice were randomized to the different groups as described in Table 2.
Tumor volume and body weights were measured twice weekly up to 58 days following A549 inoculation. Tumor volume was calculated using the following formula: Tumor volume=(A^2×B/2) where A is the smallest diameter and B is the largest diameter.
The treatment was initiated on the day of randomization according to the schedule described in Table 2. PDX was administered via IP injection and Tarceva® by oral gavage. PBS and 0.5% CMC were administrated to Group 1 as control vehicles by IP and PO routes, respectively.
Statistical analysis was performed using Graphpad Prism software. Comparison between control group and treatment groups was performed using 2 way ANOVA analysis.

human recombinant DHFR = molecular target: T1, human recombinant DHFR (Homo sapiens, UniProt P00374); experiment: DHFR inhibition in a cell-free assay; format: biochemical; conditions: read-out: Apparent Ki for DHFR inhibition
T1 sequence (P00374 1-187): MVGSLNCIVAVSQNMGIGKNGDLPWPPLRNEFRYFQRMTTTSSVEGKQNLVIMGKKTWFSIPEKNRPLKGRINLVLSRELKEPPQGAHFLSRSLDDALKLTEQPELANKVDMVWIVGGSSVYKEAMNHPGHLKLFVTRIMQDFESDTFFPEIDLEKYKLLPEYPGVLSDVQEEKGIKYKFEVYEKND
Excerpt: as §1

[3] = system: TS enzymatic activity and protein expression, and DHFR protein content; experiment: Activity/expression of folate-dependent enzymes in harvested tumors; format: in vivo; conditions: H460 and MV522 tumor xenografts
Excerpt: as §1

## Nc1nc2[nH]cc(CCc3ccc(C(=O)N[C@@H](CCC(=O)O)C(=O)O)cc3)c2c(=O)[nH]1 [Alimta, pemetrexed]
[1]
  Polyglutamylation: much lesser polyglutamylation
H460 cells
  Total uptake of radiolabeled drug: decreased later

## N.N.[Cl][Pt][Cl] [Cisplatin]
A549 cells
  IC50: 22.4 nM

## CC(=O)O[C@@]12CO[C@@H]1C[C@H](O)[C@@]1(C)C(=O)[C@H](O)C3=C(C)[C@@H](OC(=O)[C@H](O)[C@@H](NC(=O)OC(C)(C)C)c4ccccc4)C[C@@](O)([C@@H](OC(=O)c4ccccc4)[C@H]21)C3(C)C [Docetaxel]
A549 cells; Homo sapiens
  IC50: 23.6 nM

## CN(Cc1cnc2nc(N)nc(N)c2n1)c1ccc(C(=O)N[C@@H](CCC(=O)O)C(=O)O)cc1 [MTX, methotrexate]
[1]
  Polyglutamylation: much lesser polyglutamylation
H460 cells; in comparison with PDX or Alimta
  Fraction of radiolabeled drug that entered the cells: significantly smaller fraction

## C#CCC(Cc1cnc2nc(N)nc(N)c2n1)c1ccc(C(=O)N[C@@H](CCC(=O)O)C(=O)O)cc1 (stereo partly shown) [PDX, 10-Propargyl-10-deazaaminopterin]
H460 xenografts
  Tumor growth: dose-dependently inhibited tumor growth
A549 cells; Homo sapiens
  IC50: 65.1 nM
MV522 xenografts
  Tumor growth: dose-dependently inhibited tumor growth
[1]
  Polyglutamylation: greater polyglutamylation
H460 cells
  Total uptake of radiolabeled drug: increased over time
[2]; PDX 2 mg/kg IP QDx5 two cycles, Tarceva 50 mg/kg PO QDx21, alone or combined
  Tolerability: well tolerated
A549 xenograft; PDX 1 mg/kg IP QDx5 two cycles
  Effect on tumor growth: a trend in reducing tumor growth; also recorded: a trend toward controlling tumor growth
A549 xenograft; PDX 1 mg/kg IP QDx5 two cycles, day 0
  Tumor volume Avg ± SD: 132 ± 52. mm^3
A549 xenograft; PDX 1 mg/kg IP QDx5 two cycles, day 3
  Tumor volume Avg ± SD: 148 ± 67. mm^3
A549 xenograft; PDX 1 mg/kg IP QDx5 two cycles, day 7
  Tumor volume Avg ± SD: 176 ± 87. mm^3
A549 xenograft; PDX 1 mg/kg IP QDx5 two cycles, day 10
  Tumor volume Avg ± SD: 158 ± 93. mm^3
A549 xenograft; PDX 1 mg/kg IP QDx5 two cycles, day 14
  Tumor volume Avg ± SD: 199 ± 79. mm^3
A549 xenograft; PDX 1 mg/kg IP QDx5 two cycles, day 17
  Tumor volume Avg ± SD: 190 ± 78. mm^3
A549 xenograft; PDX 1 mg/kg IP QDx5 two cycles, day 21
  Tumor volume Avg ± SD: 179 ± 112 mm^3
A549 xenograft; PDX 1 mg/kg IP QDx5 two cycles, day 24
  Tumor volume Avg ± SD: 191 ± 105 mm^3
A549 xenograft; PDX 1 mg/kg IP QDx5 two cycles, day 28
  Tumor volume Avg ± SD: 201 ± 114 mm^3
A549 xenograft; PDX 1 mg/kg IP QDx5 two cycles, day 35
  Tumor volume Avg ± SD: 224±128 mm^3
A549 xenograft; PDX 2 mg/kg IP QDx5 two cycles
  Effect on tumor growth: a trend in reducing tumor growth; also recorded: a trend toward controlling tumor growth; also recorded: inhibited the growth of the A549 xenografts
A549 xenograft; PDX 2 mg/kg IP QDx5 two cycles, day 0
  Tumor volume Avg ± SD: 131 ± 49. mm^3
A549 xenograft; PDX 2 mg/kg IP QDx5 two cycles, day 3
  Tumor volume Avg ± SD: 133 ± 60. mm^3
A549 xenograft; PDX 2 mg/kg IP QDx5 two cycles, day 7
  Tumor volume Avg ± SD: 166 ± 75. mm^3
A549 xenograft; PDX 2 mg/kg IP QDx5 two cycles, day 10
  Tumor volume Avg ± SD: 139 ± 70. mm^3
A549 xenograft; PDX 2 mg/kg IP QDx5 two cycles, day 14
  Tumor volume Avg ± SD: 207 ± 100 mm^3
A549 xenograft; PDX 2 mg/kg IP QDx5 two cycles, day 17
  Tumor volume Avg ± SD: 174 ± 104 mm^3
A549 xenograft; PDX 2 mg/kg IP QDx5 two cycles, day 21
  Tumor volume Avg ± SD: 194 ± 114 mm^3
A549 xenograft; PDX 2 mg/kg IP QDx5 two cycles, day 24
  Tumor volume Avg ± SD: 194 ± 101 mm^3
A549 xenograft; PDX 2 mg/kg IP QDx5 two cycles, day 28
  Tumor volume Avg ± SD: 189 ± 106 mm^3
A549 xenograft; PDX 2 mg/kg IP QDx5 two cycles, day 35
  Tumor volume Avg ± SD: 210±109 mm^3
Human recombinant DHFR
  Ki: 45 nM
[3]
  Effect on TS enzymatic activity and protein expression, and DHFR protein content: down-regulated most of these endpoints

## CC(=O)O[C@H]1C(=O)[C@@]2(C)[C@H]([C@H](OC(=O)c3ccccc3)[C@]3(O)C[C@H](OC(=O)[C@H](O)[C@@H](NC(=O)c4ccccc4)c4ccccc4)C(C)=C1C3(C)C)[C@]1(OC(C)=O)CO[C@@H]1C[C@@H]2O [Paclitaxel]
A549 cells; Homo sapiens
  IC50: 109 nM

## C#Cc1cccc(Nc2ncnc3cc(OCCOC)c(OCCOC)cc23)c1 [Tarceva, [6,7-bis(2-methoxyethoxy)-4-quinazolin-4-yl]-(3-ethynylphenyl)amine, reference compound]
[2]; mouse, in vivo
  Tolerability: well tolerated
A549 xenograft; Tarceva 50 mg/kg PO
  Effect on tumor growth: did not control tumor growth
A549 xenograft; Tarceva 50 mg/kg PO, day 0
  Tumor volume Avg ± SD: 131 ± 47. mm^3
A549 xenograft; Tarceva 50 mg/kg PO, day 3
  Tumor volume Avg ± SD: 166 ± 80. mm^3
A549 xenograft; Tarceva 50 mg/kg PO, day 7
  Tumor volume Avg ± SD: 216 ± 121 mm^3
A549 xenograft; Tarceva 50 mg/kg PO, day 10
  Tumor volume Avg ± SD: 214 ± 140 mm^3
A549 xenograft; Tarceva 50 mg/kg PO, day 14
  Tumor volume Avg ± SD: 249 ± 130 mm^3
A549 xenograft; Tarceva 50 mg/kg PO, day 17
  Tumor volume Avg ± SD: 271 ± 206 mm^3
A549 xenograft; Tarceva 50 mg/kg PO, day 21
  Tumor volume Avg ± SD: 270 ± 210 mm^3
A549 xenograft; Tarceva 50 mg/kg PO, day 24
  Tumor volume Avg ± SD: 294 ± 261 mm^3
A549 xenograft; Tarceva 50 mg/kg PO, day 28
  Tumor volume Avg ± SD: 308 ± 280 mm^3
A549 xenograft; Tarceva 50 mg/kg PO, day 35
  Tumor volume Avg ± SD: 358±282 mm^3 and 357 ± 282 mm^3
